Source: US20200347043A1, “MODULATORS OF THE INTEGRATED STRESS PATHWAY” (Calico Life Sciences LLC, priority 2019, published 2020)

tested on: HEK293T cells carrying the ATF4 luciferase reporter; experiment: ATF4-Luc assay (in vitro model of VWMD); format: cell-based, human; conditions: Homo sapiens, HEK-293T, 1 μg/mL tunicamycin, 7 hours, One Glo luminescence
How it was run: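 Stable HEK293T line expressing firefly luciferase behind the human ATF4 5′-UTR, treated with 1 μg/mL tunicamycin plus compound for 7 hours. Luminescence read with One Glo; EC50 determined.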

| SMILES | EC50 [nM] |
| --- | --- |
| O=C(NC12CC(c3cc(-c4ccc(Cl)c(F)c4)on3)(C1)C2)[C@H]1C[C@@H](O)c2cc(Cl)ccc2O1 [Compound 258, (2R,4R)-6-chloro-N-{3-[5-(4-chloro-3-fluorophenyl)-1,2-oxazol-3-yl]bicyclo[1.1.1]pentan-1-yl}-4-hydroxy-3,4-dihydro-2H-1-benzopyran-2-carboxamide] | < 10 |
| O=C(NC12CC(c3cc(-c4ccc(Cl)c(F)c4)on3)(C1)C2)[C@@H]1C[C@@H](O)c2cc(Cl)ccc2O1 [Compound 259, (2S,4R)-6-chloro-N-{3-[5-(4-chloro-3-fluorophenyl)-1,2-oxazol-3-yl]bicyclo[11.11]pentan-1-yl}-4-hydroxy-3,4-dihydro-2H-1-benzopyran-2-carboxamide] | 10 to 50 |
| O=C(NC12CC(c3cc(-c4ccc(C(F)(F)F)nc4)on3)(C1)C2)[C@H]1C[C@@H](O)c2cc(Cl)ccc2O1 [Compound 260, (2R,4R)-6-chloro-4-hydroxy-N-(3-{5-[6-(trifluoromethyl)pyridin-3-yl]-1,2-oxazol-3-yl}bicyclo[1.1.1]pentan-1-yl)-3,4-dihydro-2H-1-benzopyran-2-carboxamide] | 10 to 50 |
| O=C(NC12CC(c3cc(-c4ccc(C(F)(F)F)nc4)on3)(C1)C2)[C@@H]1C[C@@H](O)c2cc(Cl)ccc2O1 [Compound 261, (2S,4R)-6-chloro-4-hydroxy-N-(3-{5-[6-(trifluoromethyl)pyridin-3-yl]-1,2-oxazol-3-yl}bicyclo[1.1.1]pentan-1-yl)-3,4-dihydro-2H-1-benzopyran-2-carboxamide] | 50 to 250 |
| O=C(NC12CC(c3cnn(-c4ccc(C(F)(F)F)nc4)c3)(C1)C2)[C@H]1C[C@@H](O)c2cc(Cl)ccc2O1 [Compound 262, (2R,4R)-6-chloro-4-hydroxy-N-(3-{1-[6-(trifluoromethyl)pyridin-3-yl]-1H-pyrazol-4-yl}bicyclo[1.1.1]pentan-1-yl)-3,4-dihydro-2H-1-benzopyran-2-carboxamide] | < 10 |
| O=C(NC12CC(c3cnn(-c4ccc(C(F)(F)F)nc4)c3)(C1)C2)[C@@H]1C[C@@H](O)c2cc(Cl)ccc2O1 [Compound 263, (2S,4R)-6-chloro-4-hydroxy-N-(3-{1-[6-(trifluoromethyl)pyridin-3-yl]-1H-pyrazol-4-yl}bicyclo[1.1.1]pentan-1-yl)-3,4-dihydro-2H-1-benzopyran-2-carboxamide] | 10 to 50 |
| O=C(NC12CC(c3cnn(-c4ccc(Cl)cc4)c3)(C1)C2)[C@H]1C[C@@H](O)c2cc(Cl)ccc2O1 [Compound 264, (2R,4R)-6-chloro-N-{3-[1-(4-chlorophenyl)-1H-pyrazol-4-yl]bicyclo[1.1.1]pentan-1-yl}-4-hydroxy-3,4-dihydro-2H-1-benzopyran-2-carboxamide] | < 10 |
| O=C(NC12CC(c3cnn(-c4ccc(Cl)cc4)c3)(C1)C2)[C@@H]1C[C@@H](O)c2cc(Cl)ccc2O1 [Compound 265, (2S,4R)-6-chloro-N-{3-[1-(4-chlorophenyl)-1H-pyrazol-4-yl]bicyclo[1.1.1]pentan-1-yl}-4-hydroxy-3,4-dihydro-2H-1-benzopyran-2-carboxamide] | 10 to 50 |
| O=C(NC12CC(c3cc([C@H]4C[C@@H](OC(F)(F)F)C4)no3)(C1)C2)[C@H]1C[C@@H](O)c2cc(Cl)ccc2O1 [Compound 266, (2R,4R)-6-chloro-4-hydroxy-N-(3-{3-[cis-3-(trifluoromethoxy)cyclobutyl]-1,2-oxazol-5-yl}bicyclo[1.1.1]pentan-1-yl)-3,4-dihydro-2H-1-benzopyran-2-carboxamide] | 10 to 50 |
| O=C(NC12CC(N3CC([C@H]4C[C@@H](OC(F)(F)F)C4)OC3=O)(C1)C2)[C@H]1C[C@@H](O)c2cc(Cl)ccc2O1 (stereo partly drawn) [Compound 267, (2R,4R)-6-chloro-4-hydroxy-N-(3-{2-oxo-5-[cis-3-(trifluoromethoxy)cyclobutyl]-1,3-oxazolidin-3-yl}bicyclo[1.1.1]pentan-1-yl)-3,4-dihydro-2H-1-benzopyran-2-carboxamide] | 50 to 250 |
